Data reported in US9205174B2, “Bone graft substitute in the form of an implantable three-dimensional scaffold and method of manufacturing same” (Mathys AG Bettlach, priority 2010, dated 2015).

How the values were obtained:
[1] = for expected (added) amount beyond which additional salt does not load the block / loading efficiency drastically decreases: 0.50 g/mL solution, 14×14 mm β-TCP cylinder, dried at 95° C.
Method: A 2^2 factorial design of experiments with three repeats was performed with the following factors: Factor A: CaCl2 concentration (0.25 or 0.50 g/mL); Factor B: Liquid amount (3.5 or 7.0 mL). Each of the 14×14 mm cylinders was placed standing in a snap cap flask.
The solution was then slowly added to allow impregnation through capillarity. The cylinder top was always protruding out of the solution. The samples were then inserted into the drying cupboard tempered at 60° C. The ventilation of the drying cupboard was set at its maximum.
The weight of the flask+solution+samples was measured at regular interval to determine the point at which constant weight was reached. […] Therefore, these 9 samples were removed from the flask and the weight was determined without flask. The 3 samples made with 7 mL 0.50 g/mL solution were kept for a longer time. The drying temperature was increased to 80° C.
Each of the 14×14 mm cylinders was placed standing in a snap cap flask. The solution was then slowly injected at the bottom of the snap-cap flask to allow impregnation through capillarity. 6 different volumes were injected: 1.8, 2.7, 3.6, 4.5, 5.6 and 6.3 mL.
Two cylinders were prepared for each solution volume. The cylinder top was always protruding out of the solution. The samples were then inserted into the drying cupboard tempered at 95° C. The ventilation of the drying cupboard was set at its maximum.
The weight of the flask+solution+samples was measured at regular interval to determine the point at which constant weight was reached. The sample weight was determined to assess how much di-potassium hydrogen phosphate was present in the block pores.
Each of the 14×14 mm cylinders was placed standing in a snap cap flask. The solution (kept at 95° C.) was then slowly injected at the bottom of the snap-cap flask to allow impregnation through capillarity. […]
The weight of the flask+solution+samples was measured at regular interval to determine the point at which constant weight was reached. […] The sample weight was determined to assess how much di-potassium hydrogen phosphate was present in the block pores.

[2] = Release test of loaded β-TCP blocks in 1 L deionized water, weight loss after drying; assay type: physicochemical; conditions: for amount released: 50 RPM; for dissolution rate DRD relative to dissolution rate DRS of β-TCP: from weight losses; for release rate (in words): from loaded β-TCP blocks in 1 L deionized water
Method: (§1) Each sample was then placed into a small porous cage produced by joining together two BD Falcon filters (Mesh size: 70 micrometers). The cage was lowered into a 1 L deionized water. Stirring was performed with a large magnetic bar (6 cm in length) at 50 RPM. The samples were removed from the solution after 1 h or 3 h (1 sample per time and per composition). The samples were then dried at 95° C. and weighed to determine the amount of Na2HPO4.2H2O released during the test.
as §1, with “after 10 min,” for “after”, “or 6” for “or 3”, “(1 samples” for “(1 sample”, “of CaCl2” for “of Na2HPO4.2H2O”, “the incubation.” for “the test.”

SMILES | expected (added) amount beyond which additional salt does not load the block / loading efficiency drastically decreases [1] | amount released ([2]; Example 4, after 1 h, deionized water) | state of samples after release ([2]; Example 4, at 6 h, deionized water) | amount released ([2]; Example 4, within 10 minutes, deionized water) | dissolution rate DRD relative to dissolution rate DRS of β-TCP ([2]; deionized water) | release rate (in words) [2] | loading efficiency ([1]; Example 1, porous β-TCP blocks, 7 mL of 0.25 g/mL or 3.5 mL of 0.50 g/mL solution, dried at 60° C.) [%]
O=P([O-])([O-])O.[K+].[K+] [K2HPO4, di-potassium hydrogen phosphate] | ≈ 2.5 g | – | – | – | – | – | –
[Ca+2].[Cl-].[Cl-] [calcium chloride] | – | 80-85% | free of calcium chloride | roughly 50% | more than 100 times | very fast | ~84
O=P([O-])([O-])O.[Na+].[Na+] [Na2HPO4.2H2O, di-sodium hydrogen phosphate] | ~1.35 g | – | – | – | two order of magnitude larger | relatively slowly | –
